Measurements published in EP0341681B1, “6-Phenoxymethyl-4-hydroxytetrahydropyran-2-ones and 6-thiophenoxymethyl-4-hydroxytetrahydropyran-2-ones, the corresponding dihydrocarboxylic-acid derivatives, salts and esters, process for preparing these compounds, their use as medicines, pharmaceutical compositions and phenols and thiophenols” (HOECHST AKTIENGESELLSCHAFT, priority 1988, dated 1989).
Where two headings read alike, the source gives them in different places.

Key:
[1] = target: T1, HMG-CoA-Reduktase (Rattus norvegicus, UniProt P51639); test: Inhibition of HMG-CoA reductase activity in solubilised enzyme preparations from rat liver microsomes; type: biochemical, Ratten; settings: sodium salts of the dihydroxycarboxylic acids of formula II; substrate (S,R) 14C-HMG-CoA; mean of 3 parallel samples; read-out: IC₅₀
T1 construct: solubilisierten Enzympräparationen aus Ratten-Lebermikrosomen; from tissue; host or cells: rat liver microsomes (cholestyramine-induced rats)
T1 sequence (P51639 1-887): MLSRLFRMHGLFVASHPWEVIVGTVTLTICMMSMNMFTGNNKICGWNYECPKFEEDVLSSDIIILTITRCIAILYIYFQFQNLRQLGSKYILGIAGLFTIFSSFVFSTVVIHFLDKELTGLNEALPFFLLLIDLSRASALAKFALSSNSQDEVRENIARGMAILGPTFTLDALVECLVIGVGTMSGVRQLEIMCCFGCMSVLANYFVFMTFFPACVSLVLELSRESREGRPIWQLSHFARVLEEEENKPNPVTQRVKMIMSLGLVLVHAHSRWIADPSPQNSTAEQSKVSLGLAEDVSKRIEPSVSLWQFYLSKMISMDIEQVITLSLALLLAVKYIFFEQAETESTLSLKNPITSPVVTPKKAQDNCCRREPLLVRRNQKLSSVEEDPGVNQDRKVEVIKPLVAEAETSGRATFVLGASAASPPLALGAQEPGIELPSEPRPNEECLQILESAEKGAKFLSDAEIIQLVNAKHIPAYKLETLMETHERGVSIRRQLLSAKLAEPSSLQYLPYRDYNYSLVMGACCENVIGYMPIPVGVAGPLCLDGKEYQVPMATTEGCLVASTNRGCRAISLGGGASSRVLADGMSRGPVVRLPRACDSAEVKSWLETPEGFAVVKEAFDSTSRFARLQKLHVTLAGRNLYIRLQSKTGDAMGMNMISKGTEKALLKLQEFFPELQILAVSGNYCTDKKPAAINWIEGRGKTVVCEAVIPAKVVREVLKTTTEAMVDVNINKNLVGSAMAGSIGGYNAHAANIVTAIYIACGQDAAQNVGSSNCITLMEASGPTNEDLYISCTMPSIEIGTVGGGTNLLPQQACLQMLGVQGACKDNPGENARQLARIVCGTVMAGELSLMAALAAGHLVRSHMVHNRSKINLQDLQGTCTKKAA
Text: Die HMG-CoA-Reduktase-Aktivität der Natriumsalze der erfindungsgemäßen Verbindungen der Formel II wurde in zwei Testsystemen bestimmt 1) Inhibierung der HMG-CoA-Reduktase-Aktivität an solubilisierten Enzympräparationen aus Ratten-Lebermikrosomen Die HMG-CoA-Reduktase-Aktivität wurde an solubilisierten Enzympräparationen aus Lebermikrosomen von Ratten gemessen, die nach Umstellung im Tag-Nacht-Rhythmus mit Cholestyramin (®Cuemid) induziert wurden. Als Substrat diente (S,R) ¹⁴C-HMG-CoA, die Konzentration von NADPH wurde während der Inkubation durch ein regenerierendes System aufrechterhalten. Die Abtrennung von ¹⁴C-Mevalonat von Substrat und anderen Produkten (z.B. ¹⁴C-HMG) erfolgte über Säulenelution, wobei das Elutionsprofil jeder Einzelprobe ermittelt wurde. Auf die ständige Mitführung von ³H-Mevalonat wurde verzichtet, weil es sich bei der Bestimmung um die Relativangabe der Hemmwirkung handelt. In einer Versuchsreiche wurden jeweils die enzymfreie Kontrolle, der enzymhaltige Normalansatz (= 100 %) und solche mit Präparatezusätzen zusammen behandelt. Jeder Einzelwert wurde als Mittelwert aus 3 Parallelproben gebildet. Die Signifikanz der Mittelwertsunterschiede zwischen präparatefreien und präparatehaltigen Proben wurde nach dem t-Test beurteilt. Nach der oben beschriebenen Methode wurden von den erfindungsgemäßen Verbindungen z.B. folgende Hemmwerte auf die HMG-CoA-Reduktase ermittelt (IC₅₀- (mol/l); molare Konzentration der Verbindung pro Liter, die für eine 50 %ige Hemmung erforderlich ist) Tabelle 1

[2] = target: T2, HMG-CoA-Reduktase in HEP G2-Zellkulturen (Homo sapiens, UniProt P04035); test: Inhibition of 14C-sodium acetate incorporation into cholesterol in HEP G2 cell cultures; type: cell-based; settings: for IC70: HepG2, 3 h, read-out: IC₇₀; for relative Wirkstärke: Mevinolin-Natrium = 100
T2 sequence (P04035 1-888): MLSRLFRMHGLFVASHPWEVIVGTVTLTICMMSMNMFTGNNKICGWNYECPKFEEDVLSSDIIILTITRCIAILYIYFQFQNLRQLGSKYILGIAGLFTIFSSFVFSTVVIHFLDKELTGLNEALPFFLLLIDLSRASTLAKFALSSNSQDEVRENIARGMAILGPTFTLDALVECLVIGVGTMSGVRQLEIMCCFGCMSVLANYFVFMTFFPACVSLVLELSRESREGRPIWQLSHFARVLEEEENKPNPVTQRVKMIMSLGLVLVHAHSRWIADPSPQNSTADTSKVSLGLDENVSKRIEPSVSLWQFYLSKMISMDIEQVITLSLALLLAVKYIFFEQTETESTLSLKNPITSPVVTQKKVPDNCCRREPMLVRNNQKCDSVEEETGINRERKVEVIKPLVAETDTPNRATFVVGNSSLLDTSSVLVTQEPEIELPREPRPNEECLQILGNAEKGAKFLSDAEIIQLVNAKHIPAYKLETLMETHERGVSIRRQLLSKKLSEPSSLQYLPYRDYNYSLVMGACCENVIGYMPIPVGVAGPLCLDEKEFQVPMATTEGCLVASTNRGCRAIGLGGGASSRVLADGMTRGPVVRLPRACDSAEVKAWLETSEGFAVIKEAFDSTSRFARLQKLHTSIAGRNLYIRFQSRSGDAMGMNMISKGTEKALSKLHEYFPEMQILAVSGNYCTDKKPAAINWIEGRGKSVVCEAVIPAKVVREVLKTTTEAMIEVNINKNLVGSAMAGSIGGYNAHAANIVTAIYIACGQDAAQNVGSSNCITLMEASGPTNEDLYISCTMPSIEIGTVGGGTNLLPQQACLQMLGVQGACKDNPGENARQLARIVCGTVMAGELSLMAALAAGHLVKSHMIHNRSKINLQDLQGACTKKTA
Text: 2) Supprimierung bzw. Inhibierung der HMG-CoA-Reduktase in HEP G2-Zellkulturen (einer Human-Hepatoma-Zell-Linie) Es erfolgte eine Bestimmung der Inhibition des Einbaus von ¹⁴C-Natriumacetat in Cholesterin. Monolayers von HEP G2-Zellen in RPMJ 1640 Medium mit 10 % von Lipiden befreitem fötalem Kälberserum wurden 1 Stunde mit verschiedenen Konzentrationen der Natriumsalze der Dihydroxycarbonsäuren der Formel II präinkubiert. Nach Zugabe von ¹⁴C-markiertem Natriumacetat wurde die Inkubation 3 Std. fortgesetzt. Tritium-markiertes Cholesterin wurde als interner Standard zugefügt und ein Aliquot der Zellen alkalisch verseift. Die Lipide wurden mit Chloroform/Methanol 2:1 extrahiert. Nach Zugabe von Carrier-Cholesterin wurde das Lipidgemisch präparativ auf DC-Platten mit Chloroform/Aceton 9:1 getrennt. Die Cholesterin-Zone wurde durch Anfärben mit Joddampf sichtbar gemacht, außerdem mit einem DC-Radioscanner detektiert und dann abgeschabt. Die Menge ¹⁴C-Cholesterin wurde szintigraphisch bestimmt. In einem anderen Aliquot der Zell-Monolayers wurde (zur Berechnung der ¹⁴C-Cholesterinbiosynthese pro mg Zell-Protein) das Zellprotein gemessen. Dieselbe Prozedur wurde mit Zellen der gleichen Kultur ohne Präinkubation mit einer Testverbindung durchgeführt (sogenannte "Lösungsmittelkontrolle"). Die Wirkstärke der Testverbindungen wurde bestimmt durch Vergleich des biosynthetisierten ¹⁴C-Cholesterins in Testläufen und bei "Lösungsmittelkontrolle". Die Wirkstärke wurde auf der Basis von Mevinolin-Natriumsalz als externer Standard berechnet. […] Die gemessenen IC's für Testverbindungen (Natriumsalze der Dihydroxycarbonsäuren der Formel II) (Tab. 2) wurden um die Abweichung von Mevinolin-Natrium von seinem Durchschnittswert korrigiert. Mevinolin-Natrium wurde eine relative Wirkstärke von 100 zugewiesen.

[3] = value outside parentheses (matches ratio of IC50 values)

Row | IC50 [1] [nM] | relative Wirkstärke [2, 3] | IC70 ([2]; mean value over different cell batches, external standard) [nM] | Structure (SMILES) | IC70 ([2]; concentration for 70 % inhibition, sodium salts, corrected for the deviation of Mevinolin-Natrium from its mean value) [nM] | relative Wirkstärke ([2]; value in parentheses (matches ratio of IC70 values))
1 | 5.2 |  |  | CC(C)c1cc(C2CCCCC2)cc(-c2ccc(F)cc2)c1OC[C@@H](O)C[C@@H](O)CC(=O)O [Beispiel 8e, 3(R),5(S)-Dihydroxy-6-[2-isopropyl-4-cyclohexyl-6-(4-fluorphenyl)-phenoxy]-hexansäure-Natriumsalz] |  | 
2 | 4.8 |  |  | CC(C)c1cc(-c2ccc(F)cc2)c(SC[C@@H](O)C[C@@H](O)CC(=O)O)c(C(C)C)c1 [Beispiel 8f, 3(R),5(S)-Dihydroxy-6-[2-(4-fluorphenyl)-4,6-diisopropylthiophenoxy]-hexansäure-Natriumsalz] |  | 
3 | 36 |  |  | CC(C)c1cc(-c2ccc(F)cc2)cc(-c2ccc(F)cc2)c1SC[C@@H](O)C[C@@H](O)CC(=O)O [Beispiel 8g, 3(R),5(S)-Dihydroxy-6-[2-isopropyl-4,6-bis-(4-fluorphenyl)-thiophenoxy]-hexansäure-Natriumsalz] |  | 
4 |  |  | 150 | CCC(C)C(=O)OC1CC(C)C=C2C=CC(C)C(CCC(O)CC(O)CC(=O)O)C21 (centres unmarked) [Mevinolin-Natriumsalz, reference compound] |  | 

Further lines, the compound ahead of its results:

Row | Structure (SMILES) | IC50 [1] [nM] | relative Wirkstärke [2, 3] | IC70 ([2]; mean value over different cell batches, external standard) [nM] | IC70 ([2]; concentration for 70 % inhibition, sodium salts, corrected for the deviation of Mevinolin-Natrium from its mean value) [nM] | relative Wirkstärke ([2]; value in parentheses (matches ratio of IC70 values))
5 | CC(C)c1cc(-c2ccc(F)cc2)c(OC[C@@H](O)C[C@@H](O)CC(=O)O)c(C(C)C)c1 [Beispiel 8a, 3(R),5(S)-Dihydroxy-6-[2-(4-fluorphenyl)-4,6-diisopropylphenoxy]-hexansäure-Natriumsalz] | 2.3 | 185 |  | 70 | 214
6 | CC(C)c1cc(C(C)(C)C)cc(-c2ccc(F)cc2)c1OC[C@@H](O)C[C@@H](O)CC(=O)O [Beispiel 8b, 3(R),5(S)-Dihydroxy-6-[2-isopropyl-4-tert.-butyl-6-(4-fluorphenyl)-phenoxy]-hexansäure-Natriumsalz] | > 100 | < 1 |  |  | 
7 | CC(C)c1cc(-c2ccc(F)cc2)cc(-c2ccc(F)cc2)c1OC[C@@H](O)C[C@@H](O)CC(=O)O [Beispiel 8c, 3(R),5(S)-Dihydroxy-6-[2-isopropyl-4,6-bis-(4-fluorphenyl)-phenoxy]-hexansäure-Natriumsalz] | 17 | 56 |  |  | 
8 | CC(C)c1cc(-c2ccccc2)cc(-c2ccc(F)cc2)c1OC[C@@H](O)C[C@@H](O)CC(=O)O [Beispiel 8d, 3(R),5(S)-Dihydroxy-6-[2-isopropyl-4-phenyl-6-(4-fluorphenyl)-phenoxy-]-hexansäure-Natriumsalz] | 23 | 53 |  |  | 
